Results taken from ChEMBL document CHEMBL3885881, “DrugMatrix”.

Species on record: Rattus norvegicus
Experiment: DrugMatrix - Regimen: Daily Repeat
Format: toxicity, organism-based, Sprague-Dawley
Set-up: regimen Daily Repeat, gender Male, age 6-8 weeks
Conditions: in vivo, po, route oral GAVAGE, […]; for ABSOLUTE BASOPHIL / ABSOLUTE EOSINOPHIL / ABSOLUTE LYMPHOCYTE / ABSOLUTE MONOCYTE / ABSOLUTE SEGMENTED NEUTROPHIL / BASOPHIL / EOSINOPHIL / ERYTHROCYTE COUNT / HEMATOCRIT / HEMOGLOBIN / LEUKOCYTE COUNT / LYMPHOCYTE / MEAN CORPUSCULAR HEMOGLOBIN / MEAN CORPUSCULAR HEMOGLOBIN CONCENTRATION / MEAN CORPUSCULAR VOLUME / MONOCYTE / NEUTROPHIL / NUCLEATED RED BLOOD CELLS / PLATELET COUNT: tissue Blood; for ALANINE AMINOTRANSFERASE / ALBUMIN / ALKALINE PHOSPHATASE / ASPARTATE AMINOTRANSFERASE / BLOOD UREA NITROGEN / CARBON DIOXIDE / CHLORIDE / CHOLESTEROL / CREATINE PHOSPHOKINASE / CREATININE / GLUCOSE / LACTATE DEHYDROGENASE / LIPASE / POTASSIUM / SODIUM / TOTAL BILIRUBIN / TOTAL PROTEIN / URIC ACID: tissue Plasma
[1] = 300 mg/kg, 72 h, dose level M1, time 3 day
[2] = 300 mg/kg, 120 h, dose level M1, time 5 day
[3] = 1500 mg/kg, 72 h, dose level High, time 3 day
[4] = 1500 mg/kg, 120 h, dose level High, time 5 day

## CCc1ccc(CCOc2ccc(CC3SC(=O)NC3=O)cc2)nc1 (stereo not drawn) [PIOGLITAZONE]
[1]
  ABSOLUTE BASOPHIL: 0 CELLS/uL
  ABSOLUTE EOSINOPHIL: 0 CELLS/uL
  ABSOLUTE LYMPHOCYTE: 15172.67 CELLS/uL
  ABSOLUTE MONOCYTE: 43 CELLS/uL
  ABSOLUTE SEGMENTED NEUTROPHIL: 1184.33 CELLS/uL
  BASOPHIL: 0%
  EOSINOPHIL: 0%
  ERYTHROCYTE COUNT: 4.93 x10E6/uL
  HEMATOCRIT: 32.73%
  HEMOGLOBIN: 13 G/DL
  LEUKOCYTE COUNT: 16.4 x10E3/uL
  LYMPHOCYTE: 92.33%
  MEAN CORPUSCULAR HEMOGLOBIN: 26.4 pg
  MEAN CORPUSCULAR HEMOGLOBIN CONCENTRATION: 39.73 G/DL
  MEAN CORPUSCULAR VOLUME: 66.4 fL
  MONOCYTE: 0.33%
  NEUTROPHIL: 7.33%
  NUCLEATED RED BLOOD CELLS: 0.67 /100WBC
  PLATELET COUNT: 1282 x10E3/uL
  ALANINE AMINOTRANSFERASE: 81.33 u/L
  ALBUMIN: 4.1 G/DL
  ALKALINE PHOSPHATASE: 504.67 u/L
  ASPARTATE AMINOTRANSFERASE: 92 u/L
  BLOOD UREA NITROGEN: 13.67 mg/dL
  CARBON DIOXIDE: 34 mmol/L
  CHLORIDE: 103.33 MEQ/L
  CHOLESTEROL: 58.33 mg/dL
  CREATINE PHOSPHOKINASE: 248.33 u/L
  CREATININE: 0.22 mg/dL
  GLUCOSE: 137 mg/dL
  LACTATE DEHYDROGENASE: 98 u/L
  LIPASE: 10.67 u/L
  POTASSIUM: 6.5 MEQ/L
  SODIUM: 143.9 MEQ/L
  TOTAL BILIRUBIN: 0.1 mg/dL
  TOTAL PROTEIN: 5.47 G/DL
  URIC ACID: 1.27 mg/dL
[2]
  ABSOLUTE BASOPHIL: 0 CELLS/uL
  ABSOLUTE EOSINOPHIL: 0 CELLS/uL
  ABSOLUTE LYMPHOCYTE: 12765 CELLS/uL
  ABSOLUTE MONOCYTE: 138.67 CELLS/uL
  ABSOLUTE SEGMENTED NEUTROPHIL: 829.67 CELLS/uL
  BASOPHIL: 0%
  EOSINOPHIL: 0%
  ERYTHROCYTE COUNT: 4.76 x10E6/uL
  HEMATOCRIT: 31.27%
  HEMOGLOBIN: 12.9 G/DL
  LEUKOCYTE COUNT: 13.73 x10E3/uL
  LYMPHOCYTE: 93%
  MEAN CORPUSCULAR HEMOGLOBIN: 27.17 pg
  MEAN CORPUSCULAR HEMOGLOBIN CONCENTRATION: 41.37 G/DL
  MEAN CORPUSCULAR VOLUME: 65.73 fL
  MONOCYTE: 1%
  NEUTROPHIL: 6%
  NUCLEATED RED BLOOD CELLS: 0.67 /100WBC
  PLATELET COUNT: 1095.33 x10E3/uL
  ALANINE AMINOTRANSFERASE: 71.67 u/L
  ALBUMIN: 4.07 G/DL
  ALKALINE PHOSPHATASE: 406.67 u/L
  ASPARTATE AMINOTRANSFERASE: 102.33 u/L
  BLOOD UREA NITROGEN: 14.33 mg/dL
  CARBON DIOXIDE: 33.33 mmol/L
  CHLORIDE: 101.33 MEQ/L
  CHOLESTEROL: 56.67 mg/dL
  CREATINE PHOSPHOKINASE: 223.67 u/L
  CREATININE: 0.16 mg/dL
  GLUCOSE: 150.33 mg/dL
  LACTATE DEHYDROGENASE: 224.33 u/L
  LIPASE: 10.33 u/L
  POTASSIUM: 5.99 MEQ/L
  SODIUM: 143.9 MEQ/L
  TOTAL BILIRUBIN: 0.1 mg/dL
  TOTAL PROTEIN: 5.73 G/DL
  URIC ACID: 1.43 mg/dL
[3]
  ABSOLUTE BASOPHIL: 0 CELLS/uL
  ABSOLUTE EOSINOPHIL: 0 CELLS/uL
  ABSOLUTE LYMPHOCYTE: 8411 CELLS/uL
  ABSOLUTE MONOCYTE: 92.33 CELLS/uL
  ABSOLUTE SEGMENTED NEUTROPHIL: 1396.67 CELLS/uL
  BASOPHIL: 0%
  EOSINOPHIL: 0%
  ERYTHROCYTE COUNT: 4.68 x10E6/uL
  HEMATOCRIT: 29.23%
  HEMOGLOBIN: 11.2 G/DL
  LEUKOCYTE COUNT: 9.9 x10E3/uL
  LYMPHOCYTE: 84.33%
  MEAN CORPUSCULAR HEMOGLOBIN: 23.93 pg
  MEAN CORPUSCULAR HEMOGLOBIN CONCENTRATION: 38.27 G/DL
  MEAN CORPUSCULAR VOLUME: 62.47 fL
  MONOCYTE: 1%
  NEUTROPHIL: 14.67%
  NUCLEATED RED BLOOD CELLS: 0.33 /100WBC
  PLATELET COUNT: 1023.33 x10E3/uL
  ALANINE AMINOTRANSFERASE: 85.67 u/L
  ALBUMIN: 3.97 G/DL
  ALKALINE PHOSPHATASE: 537.33 u/L
  ASPARTATE AMINOTRANSFERASE: 97.67 u/L
  BLOOD UREA NITROGEN: 12.33 mg/dL
  CARBON DIOXIDE: 34.67 mmol/L
  CHLORIDE: 101 MEQ/L
  CHOLESTEROL: 67 mg/dL
  CREATINE PHOSPHOKINASE: 311.67 u/L
  CREATININE: 0.36 mg/dL
  GLUCOSE: 131 mg/dL
  LACTATE DEHYDROGENASE: 114.33 u/L
  LIPASE: 9.67 u/L
  POTASSIUM: 5.48 MEQ/L
  SODIUM: 145 MEQ/L
  TOTAL BILIRUBIN: 0.1 mg/dL
  TOTAL PROTEIN: 5.57 G/DL
  URIC ACID: 0.67 mg/dL
[4]
  ABSOLUTE BASOPHIL: 0 CELLS/uL
  ABSOLUTE EOSINOPHIL: 36.67 CELLS/uL
  ABSOLUTE LYMPHOCYTE: 8937 CELLS/uL
  ABSOLUTE MONOCYTE: 131.33 CELLS/uL
  ABSOLUTE SEGMENTED NEUTROPHIL: 1128.33 CELLS/uL
  BASOPHIL: 0%
  EOSINOPHIL: 0.33%
  ERYTHROCYTE COUNT: 4.76 x10E6/uL
  HEMATOCRIT: 30.03%
  HEMOGLOBIN: 11.5 G/DL
  LEUKOCYTE COUNT: 10.23 x10E3/uL
  LYMPHOCYTE: 87.33%
  MEAN CORPUSCULAR HEMOGLOBIN: 24.2 pg
  MEAN CORPUSCULAR HEMOGLOBIN CONCENTRATION: 38.3 G/DL
  MEAN CORPUSCULAR VOLUME: 63.17 fL
  MONOCYTE: 1.33%
  NEUTROPHIL: 11%
  NUCLEATED RED BLOOD CELLS: 0 /100WBC
  PLATELET COUNT: 962 x10E3/uL
  ALANINE AMINOTRANSFERASE: 56.33 u/L
  ALBUMIN: 3.93 G/DL
  ALKALINE PHOSPHATASE: 338.67 u/L
  ASPARTATE AMINOTRANSFERASE: 80 u/L
  BLOOD UREA NITROGEN: 13.67 mg/dL
  CARBON DIOXIDE: 33.67 mmol/L
  CHLORIDE: 101 MEQ/L
  CHOLESTEROL: 62.67 mg/dL
  CREATINE PHOSPHOKINASE: 366 u/L
  CREATININE: 0.36 mg/dL
  GLUCOSE: 140.67 mg/dL
  LACTATE DEHYDROGENASE: 107.33 u/L
  LIPASE: 8.67 u/L
  POTASSIUM: 5.6 MEQ/L
  SODIUM: 144.53 MEQ/L
  TOTAL BILIRUBIN: 0.17 mg/dL
  TOTAL PROTEIN: 5.47 G/DL
  URIC ACID: 0.63 mg/dL
